Data reported in patent US20240189380A1, “COMPOSITIONS FOR INHIBITING EHP INFECTION IN SHRIMP AND RELATED METHODS” (priority 2022, published 2024).

Test system: EHP spores
Test: In vitro inactivation of polar tube extrusion of EHP spores
Format: cell-based, Enterocytozoon hepatopenaei
Conditions: for polar tube extrusion of EHP spores compared to DMSO control: p>0.05; for polar tube extrusion rate: Batch 1 spores (high saline culture), 2 hours at 37° C.; for % of extrusion post-incubation: Batch 2 spores (low saline culture)
Description: The mechanism of EHP infection involves extrusion of polar tube (adhesive mechanism). In an in vitro study, inactivation of polar tube extrusion of EHP spores were tested with selected active ingredients namely thymoquinone, cinnamic aldehyde, eugenol, and carvacrol. The stock solution of bioactive molecules was prepared in dimethyl sulfoxide (DMSO) and further working solution prepared with 1× sterile phosphate buffer saline (1×PBS).
EHP spores were isolated and purified from HP of infected shrimps from high saline shrimp culture system (Batch 1) and low saline shrimp culture system (Batch 2). Purified spores were then incubated with the test molecules at a desired concentration for 2 hours at 37° C. Washed spores were then induced for polar tube extrusion with alkaline agent. The extrusion of the spore polar tubes was determined under a light microscope at 100× magnification by counting the number of extruded spores from a total of 100 spores and converting the number into % of extrusion.
Statistical analysis. The One-way analysis of variance (ANOVA) and t-Test were performed to determine the significant differences at a 95% confidence interval of % polar tube extrusion between spores treated with bioactive molecules and the corresponding DMSO control. The analyses were carried out using STATGRAPHICS centurion.

Structure (SMILES) | polar tube extrusion of EHP spores compared to DMSO control (100 ppm) | polar tube extrusion rate (10 ppm) | polar tube extrusion rate (100 ppm) | % of extrusion post-incubation (10 ppm, 2% DMSO control 86.47%) | % of extrusion post-incubation (100 ppm, 20% DMSO control 88.32%)
Cc1ccc(C(C)C)cc1O [Carvacrol] | slight reduction | – | – | – | –
O=C/C=C/c1ccccc1 [Cinnamic aldehyde] | slight reduction | – | – | – | –
C=CCc1ccc(O)c(OC)c1 [Eugenol] | slight reduction | – | – | – | –
CC1=CC(=O)C(C(C)C)=CC1=O [Thymoquinone] | – | 43.92% | 6.34% | 40.31% | 0.31%
